Results taken from US5977065A, “Bacterial nitroreductase for the reduction of CB1954 and analogues thereof to a cytotoxic form” (Cancer Research Campaign Technology Limited, priority 1991, dated 1999).

Experiments:
E. coli B nitroreductase [1] = target: T1, E. coli B nitroreductase (Escherichia coli, UniProt P38489); assay: Formation of mitomycin C by the nitroreductase upon prodrug VII (HPLC); format: biochemical; details: VII 100 μM, 500 μM NADH, enzyme 5 μg/ml, pH7, 37° C.
T1 construct: endogenous in cells; host or cells: E. coli B cell paste; endogenous enzyme purified by Phenyl-Sepharose and Q-Sepharose chromatography, not recombinant
T1 sequence (P38489 whole entry): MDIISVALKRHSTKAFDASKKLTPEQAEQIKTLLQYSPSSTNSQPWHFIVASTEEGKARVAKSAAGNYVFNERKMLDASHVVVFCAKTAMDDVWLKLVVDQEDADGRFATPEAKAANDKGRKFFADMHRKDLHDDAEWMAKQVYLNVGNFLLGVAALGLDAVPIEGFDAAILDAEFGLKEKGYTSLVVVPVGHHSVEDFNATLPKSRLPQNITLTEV
Procedure: Prodrug VII (100 μM) and cofactor (500 μM NADH) were incubated with enzyme (5 μg/ml E. coli B nitroreductase of Example 1) in 10 mM sodium phosphate buffer (pH7) in air at 37° C. At various times aliquots (10 μl) were injected onto a Partisphere C18 reverse-phase (150×4.7mm) HPLC column and eluted isocratically (2.0 ml/min) with 50% methanol in water. The eluate was continuously monitored for absorption at 260 and 340 nm and the concentration of the drugs calculated by integration of the peak corresponding to the compound on the HPLC trace.

[2] = In vivo toxicity of prodrug in mice; details: for Weight as % of Day 0, Day 2 / Weight as % of Day 0, Day 3 / Weight as % of Day 0, Day 7 / Weight as % of Day 0, Day 9: mice
Procedure: The actinomycin D prodrug (AMDPD) of formula V was tested for toxicity in mice. Groups of 3 mice were given 1, 10 or 100 mg/kg body weight i.p. of AMPD, and two further groups of 3 mice were given 1 and 10 mg/kg body weight i.p. of actinomycin D (AMD) dissolved in arachis oil. A further group of 3 mice were untreated, and a final group of 3 mice were given arachis oil i.p. only.
The body weight of the mice were monitored over 9 days. All mice treated with 10 mg/kg of AMD were dead by day 1. […] In practice, the toxicity of AMDPD is likely to be even lower, since the preparation of AMDPD used contains about 1% unconverted AMD.

E. coli B nitroreductase [3] = target: T1, E. coli B nitroreductase; assay: Formation of actinomycin D by the nitroreductase upon prodrug V (HPLC); format: biochemical; details: V 100 μM, 500 μM NADH, enzyme 2 μg/ml, pH7, 37° C.
Procedure: Disappearance of the prodrug N-4-nitro-benzyloxycarbonyl-actinomycin D (V) and formation of actinomycin D during incubation with the E. coli B nitroreductase of Example 1 is shown in FIG. 2.

V79 cells = assay: Survival (colony forming ability) of V79 cells with enzyme-activated prodrugs (Table 8); format: cell-based
Procedure: (§1) Generation of cytotoxicity by the action of the E. coli nitroreductase of Example 1 upon the prodrugs 4-[bis(2-chloroethyl)amino]phenylcarbamic acid 4'-nitrobenzyl ester (I where R^1 NH2 =III) and N-4-nitrobenzyloxy-carbonyl-actinomycin D (V) are shown in Table 8.
(§2) The effect of enzyme-activated prodrugs on the survival of V79
(§3) cells. 1 ml volumes of V79 cells (2 × 10^5 /ml) were incubated
(§4) with prodrug, 500 μM NADH, and 10 μg/ml enzyme. After a 2 hour
(§5) incubation at 37° C., the cells were harvested and assayed for
(§6) their colony forming ability, and the supernatant assayed for
(§7) the concentration of remaining prodrug by HPLC.

E. coli nitroreductase = target: T2, E. coli nitroreductase (Escherichia coli, UniProt P38489); assay: % drug reduction in the V79 incubations, remaining prodrug by HPLC (Table 8); format: biochemical
T2 construct: endogenous in cells; host or cells: E. coli B cell paste; endogenous enzyme purified by Phenyl-Sepharose and Q-Sepharose chromatography, not recombinant
T2 sequence (P38489 whole entry): as above
Procedure: as §1, §2, §3, §4, §5, §6, §7

[4] = NR 10 μg/ml + 1 μM prodrug + 500 μM NADH

## COC12C(COC(N)=O)C3=C(C(=O)C(C)=C(N)C3=O)N1CC1C2N1C(=O)OCc1ccc([N+](=O)[O-])cc1 (stereo not shown) [VII, N-4-Nitrobenzyloxycarbonyl-mitomycin C]
E. coli B nitroreductase [1]
  release of mitomycin C from the prodrug: Only in the presence of the enzyme is mitomycin C released

## Cc1c2oc3c(C)ccc(C(=O)NC4C(=O)NC(C(C)C)C(=O)N5CCCC5C(=O)N(C)CC(=O)N(C)C(C(C)C)C(=O)OC4C)c3nc-2c(C(=O)NC2C(=O)NC(C(C)C)C(=O)N3CCCC3C(=O)N(C)CC(=O)N(C)C(C(C)C)C(=O)OC2C)c(NC(=O)OCc2ccc([N+](=O)[O-])cc2)c1=O (stereo not shown) [V, N-4-Nitrobenzyloxycarbonyl-actinomycin D]
[2]; dose 1.0 mg/kg i.p.
  Weight as % of Day 0, Day 2: 102%
  Weight as % of Day 0, Day 3: 101%
  Weight as % of Day 0, Day 7: 101%
  Weight as % of Day 0, Day 9: 103%
[2]; dose 10 mg/kg i.p.
  Weight as % of Day 0, Day 2: 109%
  Weight as % of Day 0, Day 3: 105%
  Weight as % of Day 0, Day 7: 108%
  Weight as % of Day 0, Day 9: 110%
[2]; dose 100 mg/kg i.p., groups of 3 mice, Day 2
  deaths: 1 dead
[2]; dose 100 mg/kg i.p.
  Weight as % of Day 0, Day 2: 96.4%
  Weight as % of Day 0, Day 3: 95.6%
  Weight as % of Day 0, Day 7: 95%
  Weight as % of Day 0, Day 9: 96%
E. coli B nitroreductase [3]
  release of actinomycin D from the prodrug: Only when the enzyme was present was actinomycin D released
V79 cells; 1 μM prodrug alone
  % SURVIVAL: 98.3%
V79 cells; 10 μM prodrug alone
  % SURVIVAL: 39.3%
V79 cells; [4]
  % SURVIVAL: 27.4%
E. coli nitroreductase; 1 μM prodrug alone
  % DRUG REDUCTION: < 1.0%
E. coli nitroreductase; 10 μM prodrug alone
  % DRUG REDUCTION: < 1.0%
E. coli nitroreductase; [4]
  % DRUG REDUCTION: 90.5%
E. coli nitroreductase; NR 10 μg/ml + 10 μM prodrug + 500 μM NADH
  % DRUG REDUCTION: 93%
